Like-named read-outs stand apart in the source and are kept apart here.
Key:
[1] = test system: SREBP-2 transcriptional activity (SREBP2 cleavage) in HepG2_LSSprom cells; assay: Luciferase reporter driven by a SREBP-2 specific promoter in HepG2_LSSprom cells; format: cell-based
In short: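 HepG2_LSSprom cells dosed at 0.625-10 μM in serum-free medium for 6 h (or 24 h), then luciferase luminescence read. Signal normalized to vehicle (100%); IC50 by four-parameter nonlinear fit; five independent experiments, triplicate wells.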

[2] = Cytotoxicity assay (LDH release) in HepG2_LSSprom cells; format: cell-based; conditions: human, LDH release; for IC50 at 24 h: 24 h treatment
In short: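 HepG2_LSSprom cells exposed to compound at 0.625–10 μM in serum-free medium for 6 h or 24 h. Medium LDH measured colorimetrically at 490 nm; release expressed as % of lysis control after vehicle subtraction, negatives set to 0; five independent experiments, triplicate wells, mean±SEM.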

[3] = 24 h, 24 h treatment, HepG2_LSSprom cells, read-out: SREBP2 Cleavage (IC50 μM) 24 h
[4] = 24 h, read-out: SREBP2 Cleavage (IC50 μM) 24 h

SMILES | IC50 [1, 3] [µM] | IC50 at 24 h ([2]; HepG2 LSSprom cells) [µM] | further results
CC(C)(C)c1cc(-c2nc(-c3ccc(C(=O)N4CCCCC4)cc3Cl)c[nH]2)ccn1 [Compound 25, 2-tert-butyl-4-{4-[2-chloro-4-(piperidine-1-carbonyl)phenyl]-1H-imidazol-2-yl}pyridine] | 0.62 | > 10 | –
CC(C)(C)c1cc(-c2cc(-c3ccc(C(=O)Nc4cccc(O)c4)cc3Cl)cs2)ccn1 [Compound 49, 4-[5-(2-tert-butylpyridin-4-yl)thiophen-3-yl]-3-chloro-N-(3-hydroxyphenyl) benzamide] | > 1 | > 10 | –
CC(C)(C)c1cc(-c2csc(-c3ccc(C(=O)N4CCCC(C(=O)O)C4)cc3Cl)c2)ccn1 (centres unmarked) [Compound 91] | 0.72 | > 10 | –
CC(C)N(C(=O)c1ccc(-c2csc(-c3ccnc(C(C)(C)C)c3)c2)c(Cl)c1)C(C)C [Compound 33, 4-[5-(2-tert-butylpyridin-4-yl)thiophen-3-yl]-3-chloro-N,N-bis(propan-2-yl) benzamide] | 0.21 | > 10 | –
CC(C)(C)c1cc(-c2cc(-c3ccc(C(=O)N4CCC4)cc3Cl)cs2)ccn1 [Compound 42, 4-{4-[4-(azetidine-1-carbonyl)-2-chlorophenyl]thiophen-2-yl}-2-tert-butylpyridine] | – | > 10 | IC50 [1, 4]: 0.84 µM
CC(C)(C)c1cc(-c2cc(-c3ccc(C(=O)N4CCC[C@H](O)C4)cc3Cl)cs2)ccn1 [Compound 48b, (S)-(4-(5-(2-(tert-butyl)pyridin-4-yl)thiophen-3-yl)-3-chlorophenyl)(3-hydroxypiperidin-1-yl)methanone] | 0.12 | > 10 | –
CC(C)CCn1nccc1-c1cc(-c2ccc(C(=O)N3CCC(F)(F)CC3)cc2Cl)cs1 [Compound 103, [3-chloro-4-[5-(2-isopentylpyrazol-3-yl)-3-thienyl]phenyl]-(4,4-difluoro-1-piperidyl)methanone] | 0.69 | > 10 | –
CC(C)(C)OC(=O)N1CCCC(NC(=O)c2ccc(-c3csc(-c4ccnc(C(C)(C)C)c4)c3)c(Cl)c2)C1 (centres unmarked) [Compound 71, tert-butyl 3-{4-[5-(2-tert-butylpyridin-4-yl)thiophen-3-yl]-3-chlorobenzamido}piperidine-1-carboxylate] | 0.34 | > 10 | –
Cc1sc(-c2ccc(C(=O)N3CCC[C@@H](NC(=O)OC(C)(C)C)C3)cc2Cl)cc1-c1ccnc(C(C)(C)C)c1 [Compound 79a, tert-butyl N-[(3R)-1-{4-[4-(2-tert-butylpyridin-4-yl)-5-methylthiophen-2-yl]-3-chlorobenzoyl}piperidin-3-yl]carbamate] | 0.29 | > 10 | –
CC(C)(C)c1cc(-c2cc(-c3ccc(C(=O)N4CCCC(N5CCCS5(=O)=O)C4)cc3Cl)cs2)ccn1 (racemic) [Compound 36, 2-(1-{4-[5-(2-tert-butylpyridin-4-yl)thiophen-3-yl]-3-chlorobenzoyl}piperidin-3-yl)-1λ^6,2-thiazolidine-1,1-dione] | 0.49 | > 10 | –
CC(C)(C)c1cc(-c2nc(-c3ccc(C(=O)N4CCCC(N)C4)cc3Cl)c[nH]2)ccn1 (centres unmarked) [Compound 85, 1-{4-[2-(2-tert-butylpyridin-4-yl)-1H-imidazol-4-yl]-3-chlorobenzoyl}piperidin-3-amine] | – | > 10 | IC50 [1, 4]: > 3 µM
CC(C)(C)c1cc(-c2cc(-c3ccc(C(=O)N4CCCC(O)C4)cc3Cl)cs2)ccn1 (centres unmarked) [Compound 48, 1-{4-[5-(2-tert-butylpyridin-4-yl)thiophen-3-yl]-3-chlorobenzoyl}piperidin-3-ol] | 0.26 | > 10 | –
CC(C)(C)c1cc(-c2cc(-c3ccc(C(=O)N4CC5(COC5)C4)cc3Cl)cs2)ccn1 [Compound 43, 6-{4-[5-(2-tert-butylpyridin-4-yl)thiophen-3-yl]-3-chlorobenzoyl}-2-oxa-6-azaspiro[3.3]heptane] | 3.8 | – | IC50 at 24 h [2]: > 10 µM
CC(C)(C)c1cc(-c2csc(-c3ccc(C(=O)N4CC[C@@H](O)C4)cc3Cl)c2)ccn1 [Compound 68b, (3R)-1-{4-[4-(2-tert-butylpyridin-4-yl)thiophen-2-yl]-3-chlorobenzoyl}pyrrolidin-3-ol] | 0.06 | > 10 | –
CC(C)(C)c1cc(-c2cc(-c3ccc(C(=O)Nc4ccc(F)cc4)cc3Cl)cs2)ccn1 [Compound 54, 4-[5-(2-tert-butylpyridin-4-yl)thiophen-3-yl]-3-chloro-N-(4-fluorophenyl) benzamide] | 0.54 | > 10 | –
Cc1sc(-c2ccc(C(=O)N3CCC[C@H](N)C3)cc2Cl)cc1-c1ccnc(C(C)(C)C)c1 [Compound 87a, (3S)-1-{4-[4-(2-tert-butylpyridin-4-yl)-5-methylthiophen-2-yl]-3-chlorobenzoyl}piperidin-3-amine] | > 10 | > 10 | –
CC(C)(C)c1cc(-c2csc(-c3ccc(C(=O)N(CCC(=O)O)c4ccc(F)cc4)cc3Cl)c2)ccn1 [Compound 73, 3-(N-[4-[4-(2-tert-butyl-4-pyridyl)-2-thienyl]-3-chloro-benzoyl]-4-fluoro-anilino)propanoic acid] | – | > 10 | IC50 [1, 4]: > 3 µM
CC(C)(C)c1cc(-c2cc(-c3ccc(C(=O)Nc4cccnc4)cc3Cl)cs2)ccn1 [Compound 58, 4-[5-(2-tert-butylpyridin-4-yl)thiophen-3-yl]-3-chloro-N-(pyridin-3-yl)benzamide] | 1.4 | > 10 | –
CC(C)(C)c1cc(-c2cc(-c3ccc(C(=O)N4CCC[C@H](NCc5ccc(Cl)cc5)C4)cc3Cl)cs2)ccn1 [Compound 80b, (S)-(4-(5-(2-(tert-butyl)pyridin-4-yl)thiophen-3-yl)-3-chlorophenyl)(3-((4-chlorobenzyl)amino)piperidin-1-yl)methanone] | 0.04 | > 10 | –
CC(=O)N1CCN(C(=O)c2ccc(-c3csc(-c4ccnc(C(C)(C)C)c4)c3)c(Cl)c2)CC1 [Compound 29, 1-(4-{4-[5-(2-tert-butylpyridin-4-yl)thiophen-3-yl]-3-chlorobenzoyl}piperazin-1-yl)ethan-1-one] | 1.4 | > 10 | –
CCOC(=O)NC1CCCN(C(=O)c2ccc(-c3csc(-c4ccnc(C(C)(C)C)c4)c3)c(Cl)c2)C1 (centres unmarked) [Compound 44, ethyl N-(1-{4-[5-(2-tert-butylpyridin-4-yl)thiophen-3-yl]-3-chlorobenzoyl}piperidin-3-yl)carbamate] | – | > 10 | IC50 [1, 4]: 0.44 µM

Second part, led by results:

IC50 [1, 3] [µM] | SMILES | IC50 at 24 h ([2]; HepG2 LSSprom cells) [µM] | further results
0.3 | CC(C)(C)c1cc(-c2cc(-c3ccc(C(=O)N4CCCCC4)cc3Cl)cs2)ccn1 [Compound 11, 2-tert-butyl-4-{4-[2-chloro-4-(piperidine-1-carbonyl)phenyl]thiophen-2-yl}pyridine] | – | IC50 ([1]; 6 h, 6 h treatment, HepG2_LSSprom cells, read-out: SREBP2 Cleavage (IC50 μM) 6 h): < 1 µM; IC50 at 6 h ([2]; HepG2 LSSprom cells, 6 h treatment): > 10 µM
0.41 | CC(C)(C)c1cc(-c2csc(-c3ccc(C(=O)N4CCNC(=O)C4)cc3Cl)c2)ccn1 [Compound 93, 4-{4-[4-(2-tert-butylpyridin-4-yl)thiophen-2-yl]-3-chlorobenzoyl}piperazin-2-one] | > 10 | –
0.91 | CC(C)(C)OC(=O)NC1CCN(C(=O)c2ccc(-c3csc(-c4ccnc(C(C)(C)C)c4)c3)c(Cl)c2)CC1 [Compound 37, tert-butyl N-(1-{4-[5-(2-tert-butylpyridin-4-yl)thiophen-3-yl]-3-chlorobenzoyl}piperidin-4-yl)carbamate] | > 10 | –
3.9 | Cc1cc(C)c(CNC(=O)c2ccc(-c3csc(-c4ccnc(C(C)(C)C)c4)c3)c(Cl)c2)c(=O)[nH]1 [Compound 53, 4-[5-(2-tert-butylpyridin-4-yl)thiophen-3-yl]-3-chloro-N-[(4,6-dimethyl-2-oxo-1,2-dihydropyridin-3-yl)methyl]benzamide] | > 10 | –
0.069 | CC(C)(C)OC(=O)N[C@@H]1CCCN(C(=O)c2ccc(-c3csc(-c4ccnc(C(C)(C)C)c4)c3)c(Cl)c2)C1 [Compound 19a, tert-butyl (R)-(1-(4-(5-(2-(tert-butyl)pyridin-4-yl)thiophen-3-yl)-3-chlorobenzoyl)piperidin-3-yl)carbamate] | > 10 | –
0.99 | CC(C)(C)c1cc(-c2cc(-c3ccc(C(=O)N4CCCC(NS(C)(=O)=O)C4)cc3Cl)cs2)ccn1 (racemic) [Compound 31, N-(1-{4-[5-(2-tert-butylpyridin-4-yl)thiophen-3-yl]-3-chlorobenzoyl}piperidin-3-yl)methanesulfonamide] | > 10 | –
> 3 | CC(C)(C)c1cc(-c2nc(-c3ccc(C(=O)N4CCC(F)(F)CC4)cc3Cl)c[nH]2)ccn1 [Compound 24, 2-tert-butyl-4-{4-[2-chloro-4-(4,4-difluoropiperidine-1-carbonyl)phenyl]-1H-imidazol-2-yl}pyridine] | > 10 | IC50 ([1]; 24 h treatment, HepG2_LSSprom cells, read-out: SREBP2 Cleavage (IC50 μM) 24 h): 2.7 µM
> 1 | CC(C)(C)c1cc(-c2cc(-c3ccc(C(=O)N4CCCC(N)C4)cc3Cl)cs2)ccn1 (racemic) [Compound 21, 1-{4-[5-(2-tert-butylpyridin-4-yl)thiophen-3-yl]-3-chlorobenzoyl}piperidin-3-amine] | > 3 | –
0.74 | CC(C)(C)c1cc(-c2csc(-c3ccc(C(=O)N4CCc5nc[nH]c5C4)cc3Cl)c2)ccn1 [Compound 92, 2-tert-butyl-4-[5-(2-chloro-4-{3H,4H,5H,6H,7H-imidazo[4,5-c]pyridine-5-carbonyl}phenyl)thiophen-3-yl]pyridine] | > 10 | –

From US10189826B2, “Heterocyclic compounds and methods of use” (Medivation Technologies LLC, priority 2015, dated 2019)
